Patent publication US11096930B2, “Substituted imidazopyridine compounds as inhibitors of indoleamine 2,3-dioxygenase and/or tryptophan-2,3-dioxygenase” (IOMet Pharma Ltd., priority 2016, dated 2021)

Key:
IDO1 [1] = target: T1, IDO1 (Homo sapiens (Human), UniProt P14902); assay: IDO1 HEK293 Cellular Assay; type: cell-based; conditions: HEK293 cells transfected with Flag-IDO1 vector; read-out: HEK293 Cell Assay, pIC50 (converted)
Protocol: IDO1 HEK293 Cellular Assay
Compounds to be tested were serially diluted in ten 3-fold steps in DMSO starting from 10 mM DMSO stocks. Compound dilutions or DMSO alone were then dispensed from the dilution plate into a Greiner black 384-well assay plate (catalog #781086) using an Echo 550 acoustic liquid handler (Labcyte).
HEK293 cell pellets were resuspended to 5×10^5 cells/mL in complete HEK293 culture media (89% DMEM, 10% FBS, 1% penicilllin/streptomycin). Suspended cells (2 mL) were dispensed into each well of a 6-well Corning plate (Catalog #3516). Cells were allowed to attach and were incubated for 20 hours at 37 degrees Celsius in a 5% CO2 incubator. Flag-IDO1 vector (Genscript True ORF Gold, 2 ug) in 150 uL of Opti-MEM medium was added to each well of a Corning 24 well plate (Cat #3527) and incubated for 5 minutes at room temperature. To each well of the 24-well plate was added 150 μL Lipofectamine 2000 (Gibco) and the plate incubated at room temperature for 20-30 minutes. To each well of attached cells in the 6-well plate, 250 μL of the transfection mix from the 24-well plate was gently added to each well and IDO1 protein was allowed to express for 24-30 hours at 37 degrees Celsius in a 5% CO2 incubator.
Media was removed from the cells which were then washed with 2 mL Dulbecco's phosphate-buffered saline (DPBS). After removal of DPBS, 0.5 mL of TrypLE (Gibco) was added and incubated at 5 minutes until cells lift from the surface of the wells. Complete HEK293 culture media (4 mL) was added to each well and cells were collected and pooled into a conical tube. Cells were pelleted at 200×g for 5 minutes and resuspended in an equal volume of complete DMEM medium. Cells were diluted to 4×10^5 cells per mL in complete HEK293 media. L-Tryptophan was added to added to give a final concentration of 200 μM. The diluted transfected cells (50 μL) or nontransfected cells (50 μL) were dispensed into wells of Greiner black 384-well assay plates (catalog #781086) containing previously diluted compounds. The plate is briefly mixed and centrifuged at 200×g for 10 seconds to collect cells at the bottom of the plate. Plates were covered and incubated for 20-24 hours at 37 degrees C. in a 5% CO2 incubator. […] The resulting fluoresence was measured in an Envision plate reader (Perkin Elmer) with a 400/25 nm excitation filter and an 510/20 nm emission filter.
The fluoresence intensity of each well was corrected for the background observed in wells with untransfected cells and was expressed as a fraction of the intensity observed in wells of IDO1 transfected cells and DMSO only. Potencies were calculated by linear least squares fit to the four parameter logistic IC50 equation.

IDO1 [2] = target: T1, IDO1; assay: IDO1 Enzyme Assay; type: biochemical; conditions: HIS-tagged IDO1, fluorescence
Protocol: Compounds to be tested were serially diluted in ten 3-fold steps in DMSO starting from 10 mM DMSO stocks. Compound dilutions or DMSO alone were then dispensed from the dilution plate into a Greiner black 384-well assay plate (catalog #781086) using an Echo 555 acoustic liquid handler (Labcyte).
HIS-tagged IDO1 protein was recombinantly expressed in Escherichia coli using ZYP5052 autoinduction media supplemented with 500 μM delta aminolevulinic acid for 48 hours at 16 degrees Celsius. IDO1 protein was purified using Ni^2+-affinity resin and size exclusion chromatography. Purified protein was then diluted in assay buffer (50 mM Tris pH 7.0, 1% glycerol, 20 μM methylene blue, 0.05% Tween-20, 20 mM sodium ascorbate, 100 units/mL catalase to obtain a final IDO1 concentration of 40 nM. […] were dispensed to wells of the assay plate using a BioRAPTR liquid dispenser (Beckman Coulter). Assay plates containing compound and IDO1 enzyme were incubated at room temperature for 30 minutes. Afterwards, 10 μL of 400 μM tryptophan in assay buffer were added to each well of the assay plate using a BioRAPTR liquid dispenser. Plates were incubated at room temperature for 60 minutes and reactions were quenched by addition of 10 μL of 0.5 M methyl isonipecotate in dimethyl sulfoxide. Plates were sealed and incubated at 37 degrees Celsius for 4 hours or 50 degrees Celsius for 2 hours. The plates are allowed to cool and then centrifuged for 1 minute at 1000×g. The resulting fluoresence was measured in an Envision plate reader (Perkin Elmer) with a 400/25 nm excitation filter and an 510/20 nm emission filter.
Potencies were calculated by linear least squares fit to the four parameter logistic IC50 equation.

T1 sequence (P14902 whole entry): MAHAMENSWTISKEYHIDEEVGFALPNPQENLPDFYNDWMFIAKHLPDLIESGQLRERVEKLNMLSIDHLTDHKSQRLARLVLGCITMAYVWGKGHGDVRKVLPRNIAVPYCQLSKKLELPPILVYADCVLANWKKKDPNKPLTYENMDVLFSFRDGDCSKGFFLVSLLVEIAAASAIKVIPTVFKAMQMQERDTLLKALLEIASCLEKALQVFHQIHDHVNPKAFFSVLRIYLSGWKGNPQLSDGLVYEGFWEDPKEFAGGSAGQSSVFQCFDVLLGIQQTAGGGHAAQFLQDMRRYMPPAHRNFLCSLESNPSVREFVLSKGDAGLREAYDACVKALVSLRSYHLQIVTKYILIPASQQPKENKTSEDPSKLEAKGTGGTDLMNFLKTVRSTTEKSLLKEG

IC50 (IDO1 [1]) | IDO1 Enzyme Assay, pIC50 (IDO1 [2]) | SMILES
1580 nM | 5.7 | CC1=NC2(CCN(c3cc(C(F)(F)F)cc4cncn34)CC2)C(=O)N1 [Example 18, 2-methyl-8-(7-(trifluoromethyl)imidazo[1,5-a]pyridin-5-yl)-1,3,8-triazaspiro[4.5]dec-1-en-4-one]
1580 nM | 5.7 | O=C1OCCC12CCN(c1cc(C(F)(F)F)cc3cncn13)CC2 [Example 17, 8-(7-(trifluoromethyl)imidazo[1,5-a]pyridin-5-yl)-2-oxa-8-azaspiro[4.5]decan-1-one]
2000 nM | 5.2 | CC(=O)N1CCC2(CC1)CCN(c1cc(C(F)(F)F)cc3cncn13)CC2 [Example 20, 1-(9-(7-(Trifluoromethyl)imidazo[1,5-a]pyridin-5-yl)-3,9-diazaspiro[5.5]undecan-3-yl)ethan-1-one]
6310 nM | 5.1 | O=C1NCCC12CCN(c1cc(C(F)(F)F)cc3cncn13)CC2 [Example 19, 8-(7-(trifluoromethyl)imidazo[1,5-a]pyridin-5-yl)-2,8-diazaspiro[4.5]decan-1-one]
